We go through three compounds from patent US20230399611A1, “PRODUCTION METHOD FOR STAGE 5 NEURONS” (Ricoh Company, Ltd., priority 2022, published 2023).

Structures are written as SMILES.

In assay [1] the test system is human iPSC-derived neurons. As to the kind of experiment: Population firing rate of iPSC-derived neurons on high-density microelectrode array (HD-MEA). It is filed as cell-based. The conditions noted are these: added at 8 weeks after initiation of culture with increasing concentration; 1,024 electrodes per well; 10-minute recording per concentration. As to the method: Electrophysiological responses of the human iPSC-derived neurons were analyzed by using a high-density microelectrode array system (HD-MEA, MaxWell Biosystems AG).
Human iPSC-derived neurons (product name “Quick-Neuron (trademark) Excitatory-Human iPSC-derived Neurons”, ELIXIRGEN SCIENTIFIC, INC.) were cultured in the same manner as in Experimental Example 1, except that the human iPSC-derived neurons were seeded on electrodes of the high-density microelectrode array (HD-MEA) at a cell density of 100,000 cells/well, and the local electric field potential was measured over time.
4-Aminopyridine (4-AP) serving as a potassium channel inhibitor and D-2-Amino-5-phosphonopentanoic acid (D-AP5) serving ax an NMDA receptor inhibitor were added in the culture medium of iPSC-derived neurons at 8 weeks after the initiation of culture while increasing each concentration, and population firing rate histograms were recorded with 1,024 electrodes per well. One-minute stabilization and 10-minute recording were performed for each concentration. Finally, the iPSC-derived neurons were washed with three medium replacements and left for one day, and it was confirmed that the effect of each drug had disappeared.

In assay [2] the test system is Human iPSC-derived mature stage 5 neurons. As to the kind of experiment: Localization change of drebrin by immunostaining after glutamic acid treatment. Type of assay: cell-based. The conditions noted are these: 100 μM for 10 min; immunostaining of MAP2, drebrin, nuclei. As to the method:
Human iPSC-derived mature stage 5 neurons were treated with 100 μM glutamic acid for 10 minutes and then immunostained to examine the localization change of drebrin. For comparison, a sample immunostained without glutamic acid treatment was also prepared.

Take `N[C@H](CCCP(=O)(O)O)C(=O)O` [D-AP5, D-2-Amino-5-phosphonopentanoic acid]: in assay [1], the “response of population firing rate to the drug” value is on record as “dose-dependent responses”. On to `Nc1ccncc1` [4-AP, 4-Aminopyridine], for which the “response of population firing rate to the drug” value in assay [1] is given as “dose-dependent responses”. As for `N[C@@H](CCC(=O)O)C(=O)O` [glutamate, glutamic acid], the “localization change of drebrin” value in assay [2] is “drebrin was effluxed from clusters in spines”.
